The values that follow come from patent US20220235325A1, “STIMULATION OF DENDRITIC CELL ACTIVITY BY HOMOTAURINE AND ANALOGUES THEREOF” (Therapeutic Solutions International, Inc., priority 2021, published 2022).

The subject of one series is monocytes. Conditions: cited from earlier work.
In series [1] the test system is interferon gamma production. Briefly: T cell activity of PBMC plated with StemVacs dendritic cells (ELISA of interferon gamma after phytohemagglutinin). The series is classed as cell-based. The note with it: 10 micrograms/ml; PBMC plus StemVacs; 5 micrograms per ml phytohemagglutinin; 12, 24, 36 hrs (FIG. 2). How it is done:
Peripheral blood mononuclear cells where obtained by ficoll centrifugation and plated with […] umbilical cord derived dendritic cells. […] was generated by culture of umbilical blood adherent cells with interleukin 4 and GM-CSF for 7 days with maturation step induced by 24 hour culture TLR agonist. Assessment of T cell activity was performed subsequent to culture of cells with taurine (10 micrograms/ml) or homotaurine (10 micrograms/ml) for the indicated timepoints. T cell activity was assessed by ELISA quantification of interferon gamma production after stimulation with 5 micrograms per ml of phytohemagglutinin.
In general terms: In an ELISA, binding on a coated surface is turned into a signal by an enzyme label.

The next series concerns NK target cell line. As to the kind of experiment: Natural killer cell activity of PBMC plated with StemVacs dendritic cells (flow cytometry Promega cytotoxicity assay). It is filed as cell-based. Conditions: 10 micrograms/ml; PBMC plus StemVacs umbilical cord derived dendritic cells; 12, 24, 36 hrs (FIG. 1). The method, then: Peripheral blood mononuclear cells where obtained by ficoll centrifugation and plated with StemVacs umbilical cord derived dendritic cells. StemVacs was generated by culture of umbilical blood adherent cells with interleukin 4 and GM-CSF for 7 days with maturation step induced by 24 hour culture TLR agonist. Assessment of natural killer cell activity was performed subsequent to culture of cells with taurine (10 micrograms/ml) or homotaurine (10 micrograms/ml) for the indicated timepoints. Cytotoxicity against NK target cell line was performed using the flow cytometry Promega assay.

[2] abbreviates: monocytes from human peripheral blood.

Regarding `CCOCc1nc2c(N)nc3ccccc3c2n1CC(C)(C)O` [R-848], the “FcgammaR-mediated cytokine production and antibody-dependent cellular cytotoxicity by monocytes” value in the series on monocytes (12 hour exposure) was “increased”. Besides, in the series with monocytes (setting [2]), the “Expression of ADCC associated receptors FcgammaRI, FcgammaRIIa and common gamma-subunit” value is given as “upregulation”; the “Expression of the inhibitory FcgammaRIth molecule” value was “profound downregulation”.

For the compound `NCCCS(=O)(=O)O` [Homotaurine, homotaurine], in series [1], the “Ability of StemVacs to stimulate T cell activity (interferon gamma production)” value is given as “Increases Ability of StemVacs to Stimulate T Cell Activity”. Further, the “Ability of StemVacs to stimulate NK activity (cytotoxicity against NK target cell line)” value with NK target cell line is listed as “Increases Ability of StemVacs to Stimulate NK Activity”.
